Molecular target: Factor D (Homo sapiens, UniProt P00746)
Assay: Factor D esterolytic assay

Chain of Factor D (P00746 26-253): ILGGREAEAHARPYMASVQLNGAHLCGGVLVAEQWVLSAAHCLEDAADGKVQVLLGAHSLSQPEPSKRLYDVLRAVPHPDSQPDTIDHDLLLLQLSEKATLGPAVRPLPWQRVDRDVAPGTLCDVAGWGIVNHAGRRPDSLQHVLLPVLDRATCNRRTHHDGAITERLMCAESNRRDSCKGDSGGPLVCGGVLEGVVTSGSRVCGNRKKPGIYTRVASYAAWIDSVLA

SMILES | IC50 [nM]
C[C@@H](O)[C@H](NC(=O)Cn1nc(C(N)=O)c2ccccc21)C(=O)NCc1cccc(Cl)c1F [34d, 1-(2-(((2S,3R)-1-((3-chloro-2-fluorobenzyl)amino)-3-hydroxy-1-oxobutan-2-yl)amino)-2-oxoethyl)-1H-indazole-3-carboxamide] | > 10000
Nc1ncnc2c1ccn2CC(=O)N(CC(=O)Nc1cccc(Br)n1)C1CC1 [56d, 2-(4-amino-7H-pyrrolo[2,3-d]pyrimidin-7-yl)-N-(2-((6-bromopyridin-2-yl)amino)-2-oxoethyl)-N-cyclopropylacetamide] | 1000 to 10000
CC(C)N(CC(=O)NCc1cccc(Cl)c1F)C(=O)Cn1cc(C#N)c2c(N)ncnc21 [60a, 2-(4-amino-5-cyano-7H-pyrrolo[2,3-d]pyrimidin-7-yl)-N-(2-((3-chloro-2-fluorobenzyl)amino)-2-oxoethyl)-N-isopropylacetamide] | 1000 to 10000
Nc1ncnc2c1ccn2CC(=O)N(CC(=O)NCc1cccc(Cl)c1F)C1CC1 [63a, 2-(4-amino-7H-pyrrolo[2,3-d]pyrimidin-7-yl)-N-(2-((3-chloro-2-fluorobenzyl)amino)-2-oxoethyl)-N-cyclopropylacetamide] | 1000 to 10000
CC(C)N(CC(=O)NCc1cccc(Cl)c1F)C(=O)Cn1cc(C(N)=O)c2c(N)ncnc21 [65a, 4-amino-7-(2-((2-((3-chloro-2-fluorobenzyl)amino)-2-oxoethyl)(isopropyl)amino)-2-oxoethyl)-7H-pyrrolo[2,3-d]pyrimidine-5-carboxamide] | 1000 to 10000
Nc1ncnc2c1cnn2CC(=O)N(CC(=O)NCc1cccc(Cl)c1F)C1CC1 [68a, 2-(4-amino-1H-pyrazolo[3,4-d]pyrimidin-1-yl)-N-(2-((3-chloro-2-fluorobenzyl)amino)-2-oxoethyl)-N-cyclopropylacetamide] | 1000 to 10000
NC(=O)c1ncnc2c1ccn2CC(=O)N(CC(=O)Nc1cncc(Br)n1)C1CC1 [84a, 7-(2-((2-((6-bromopyrazin-2-yl)amino)-2-oxoethyl)(cyclopropyl)amino)-2-oxoethyl)-7H-pyrrolo[2,3-d]pyrimidine-4-carboxamide] | > 10000
NC(=O)c1nn(CC(=O)N(CC(=O)NCc2cccc(Cl)c2F)[C@H]2C[C@@H](O)C2)c2ccccc12 [104b, 1-(2-((2-((3-chloro-2-fluorobenzyl)amino)-2-oxoethyl)((cis)-3-hydroxycyclobutyl)amino)-2-oxoethyl)-1H-indazole-3-carboxamide] | < 1000
NC(=O)c1nn(CC(=O)N(CC(=O)NCc2cccc(Cl)c2F)[C@H]2C[C@H](O)C2)c2ccccc12 [110b, 1-(2-((2-((3-chloro-2-fluorobenzyl)amino)-2-oxoethyl)((trans)-3-hydroxycyclobutyl)amino)-2-oxoethyl)-1H-indazole-3-carboxamide] | < 1000
CC(=O)c1cn(CC(=O)N(CC(=O)NCc2cccc(Cl)c2F)[C@H]2C[C@H](O)C2)c2ccc(Nc3cncnc3)cc12 [114a, 2-(3-acetyl-5-(pyrimidin-5-ylamino)-1H-indol-1-yl)-N-(2-((3-chloro-2-fluorobenzyl)amino)-2-oxoethyl)-N-((trans)-3-hydroxycyclobutyl)acetamide] | < 1000
CC(=O)c1cn(CC(=O)N(CC(=O)NCc2cccc(Cl)c2F)C(C)C)c2ccc(C#Cc3cccnc3)cc12 [131a, 2-(3-acetyl-5-(pyridin-3-ylethynyl)-1H-indol-1-yl)-N-(2-((3-chloro-2-fluorobenzyl)amino)-2-oxoethyl)-N-isopropylacetamide] | < 1000
CC(C)(C)OC(=O)N[C@H]1C[C@@H](N(CC(=O)NCc2cccc(Cl)c2F)C(=O)Cn2nc(C(N)=O)c3ccccc32)C1 [152b, tert-butyl ((cis)-3-(2-(3-carbamoyl-1H-indazol-1-yl)-N-(2-((3-chloro-2-fluorobenzyl)amino)-2-oxoethyl)acetamido)cyclobutyl)carbamate] | < 1000
NC(=O)c1nn(CC(=O)N(CC(=O)NCc2cccc(Cl)c2F)[C@H]2C[C@@H](N)C2)c2ccccc12 [153a, 1-(2-(((cis)-3-aminocyclobutyl)(2-((3-chloro-2-fluorobenzyl)amino)-2-oxoethyl)amino)-2-oxoethyl)-1H-indazole-3-carboxamide] | < 1000
CC(C)(C)OC(=O)N[C@H]1C[C@H](CN(CC(=O)NCc2cccc(Cl)c2F)C(=O)Cn2nc(C(N)=O)c3ccccc32)C1 [161b, tert-butyl ((trans)-3-((2-(3-carbamoyl-1H-indazol-1-yl)-N-(2-((3-chloro-2-fluorobenzyl)amino)-2-oxoethyl)acetamido)methyl)cyclobutyl)carbamate] | 1000 to 10000
NC(=O)c1nn(CC(=O)N(CC(=O)NCc2cccc(Cl)c2F)C[C@H]2C[C@H](N)C2)c2ccccc12 [161c, 1-(2-((((trans)-3-aminocyclobutyl)methyl)(2-((3-chloro-2-fluorobenzyl)amino)-2-oxoethyl)amino)-2-oxoethyl)-1H-indazole-3-carboxamide] | < 1000
NC(=O)c1nn(CC(=O)N(CC(=O)NCc2cccc(Cl)c2F)[C@H]2C[C@H](N)C2)c2ccccc12 [169c, 1-(2-(((trans)-3-aminocyclobutyl)(2-((3-chloro-2-fluorobenzyl)amino)-2-oxoethyl)amino)-2-oxoethyl)-1H-indazole-3-carboxamide] | < 1000
CO[C@H]1C[C@H](N(CC(=O)NCc2cccc(Cl)c2F)C(=O)Cn2nc(C(N)=O)c3ccccc32)C1 [170b, 1-(2-((2-((3-chloro-2-fluorobenzyl)amino)-2-oxoethyl)((trans)-3-methoxycyclobutyl)amino)-2-oxoethyl)-1H-indazole-3-carboxamide] | < 1000
NC(=O)c1nn(CC(=O)N(CC(=O)NCc2cccc(Cl)c2F)C[C@H]2C[C@H](O)C2)c2ccccc12 [172b, 1-(2-((2-((3-chloro-2-fluorobenzyl)amino)-2-oxoethyl)(((trans)-3-hydroxycyclobutyl)methyl)amino)-2-oxoethyl)-1H-indazole-3-carboxamide] | < 1000
CC(=O)c1nn(CC(=O)N(CC(=O)NCc2cccc(Cl)c2F)[C@H]2C[C@H](O)C2)c2ccc(Nc3cncnc3)cc12 [182a, 2-(3-acetyl-5-(pyrimidin-5-ylamino)-1H-indazol-1-yl)-N-(2-((3-chloro-2-fluorobenzyl)amino)-2-oxoethyl)-N-(trans-3-hydroxycyclobutyl)acetamide] | < 1000
CC(=O)c1nn(CC(=O)N(CC(=O)NCc2cccc(Cl)c2F)[C@H]2C[C@H](O)C2)c2ccccc12 [183a, 2-(3-acetyl-1H-indazol-1-yl)-N-(2-((3-chloro-2-fluorobenzyl)amino)-2-oxoethyl)-N-(trans-3-hydroxycyclobutyl)acetamide] | < 1000
N#Cc1cn(CC(=O)N(CC(=O)NCc2cccc(Cl)c2F)C2CC2)c2ccc(C(=O)NCc3ccccc3)cc12 [200i, N-benzyl-1-(2-((2-((3-chloro-2-fluorobenzyl)amino)-2-oxoethyl)(cyclopropyl)amino)-2-oxoethyl)-3-cyano-1H-indole-5-carboxamide] | 1000 to 10000
NC(=O)c1nn(CC(=O)N(CC(=O)NCc2cccc(Cl)c2F)[C@H]2C[C@@H](CO)C2)c2ccccc12 [210b, 1-(2-((2-((3-chloro-2-fluorobenzyl)amino)-2-oxoethyl)((cis)-3-(hydroxymethyl)cyclobutyl)amino)-2-oxoethyl)-1H-indazole-3-carboxamide] | < 1000

From patent EP3925956B1, “1H-INDAZOLE-3-CARBOXAMIDE DERIVATIVES AND RELATED COMPOUNDS AS FACTOR D INHIBITORS FOR TREATING DISEASES CHARACTERIZED BY ABERRANT COMPLEMENT SYSTEM ACTIVITY, SUCH AS E.G. IMMUNOLOGICAL DISORDERS” (BioCryst Pharmaceuticals, Inc., priority 2016, dated 2017)
